Experimental findings from patent US20250236616A1, “IMMUNOMODULATING AZALIDES” (Zoetis Services LLC, priority 2021, published 2025) are described below.

pIC50: −log10 of the molar value. Where two headings read alike, the source gives them in different places. Marks after values point to notes of the source that are not given here. Where only a bound is given, the exact number is not on record here.

What all share (type): cell-based
The subject of test [1] is BRD pathogens, M. haemolytica and P. multocida. Briefly: MIC screening panel, BRD pathogens (CLSI broth micro-dilution). The text has this:
Primary screening of the compounds of the invention included the evaluation of antibacterial activity of analogs through determination of microbial inhibition concentration (MIC) as per CLSI guidelines. The screening panel included the relevant BRD pathogens: 1) M. haemolytica (e.g., 12726, 46571 and 49023, all AHDRCC; and 33396 (ATCC)); and 2) P. multocida (e.g., 34135 and 46572 (both AHDRCC) and 43137 (ATCC)). In some instances, H. somni (A700025K) pathogens were also included in the screening panel. The AHDRCC strains originated from the Zoetis BRD/SRD surveillance program and refer to the Animal Health Development and Research Culture Collection. In addition, the screen assessed S. aureus (29213 ATCC) as a representative Gram-positive isolate, E.faecalis (19433 ATCC) as a commensal gram-positive gastrointestinal bacterium and E. coli (100, 3110 and 25922 (ATCC)) for the evaluation of efflux potential. The screening panel BRD pathogens were assessed in determining antibacterial activity of the Formula (1) compounds.
All relevant BRD pathogens were initially screened at a top concentration of 64 μg/mL of a Formula (1) compound in an eleven-point dilution series. […] If an Example was purified further, the MICs moved […] essentially two dilutions across all strains tested in the screening panel.
In-Vitro MIC Model Compounds were analyzed for antibacterial activity against a panel of animal health specific gram-positive and gram-negative clinical strains by diluting compounds in DMSO to an appropriate stock concentration to determine the Minimal Inhibitory Concentration (MIC) via a semi-automated broth micro-dilution method (CLSI reference method) with QC strains and anti-microbial agent(s). Specifically, bacteria were grown overnight on TSA w/5% sheep blood agar plates and diluted in saline buffer to a McFarland Standard 0.5, then further diluted in cation-ion adjusted Mueller Hinton Broth to a final concentration of approximately 5×10^5 CFU/mL. 100 μL of inoculated media was added to 96-well plate(s) with 3 μL of serially diluted compound in each row. Depending on strain (see CLSI reference method), bacteria were incubated 18-22 hours at 35-37° C. in ambient air, with 5% CO2 or anaerobically (up to 48 hours).
On the technique in general: Broth dilution looks for growth in wells or tubes with falling amounts of substance.

Another test relates to TNF-α. Briefly: Whole bovine blood assay, LPS-induced TNF-α. The following applies: fresh whole bovine blood, LPS stimulant, top drug concentration 250 μM. The essentials: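 Fresh heparinized bovine whole blood was preincubated with compound 4 h at 37 °C, then stimulated with LPS (final 1 μg/mL) for 18 h at 37 °C. Plasma TNF-α was quantified by MSD U-Plex chemiluminescent immunoassay, normalized to total protein (BCA), and IC50 taken for LPS-induced TNF-α inhibition.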

Another test has as its system IL-1β. Briefly: Whole bovine blood assay, LPS-induced IL-1β (inhibition / overstimulation). Conditions: Bos taurus, 18 h, drug concentration giving overstimulation (OS) of LPS-induced IL-1β, top concentration 250 μM. In a few lines: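 Fresh heparinized bovine whole blood was preincubated with compound at varying concentrations for 4 h at 37 °C, then stimulated with 1 μg/mL LPS for 18 h. Plasma IL-1β was measured by MSD chemiluminescent immunoassay and normalized to total protein. Values cover inhibition and concentration-dependent overstimulation.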

In another test the test system is IL-6. The test can be described thus: Whole bovine blood assay, LPS-induced IL-6. Conditions: fresh whole bovine blood, LPS stimulant, top drug concentration 250 μM.
[2] abbreviates: Table B, at least one BRD pathogenic strain, top concentration 64 μg/mL, read-out: MIC flag (*) for BRD pathogenic strains.
[3] abbreviates: Table B, at least one BRD pathogenic strain, top concentration 64 μg/mL.
[4] abbreviates: Table C, at least one BRD pathogenic strain, top concentration 64 μg/mL.

Regarding `CC[C@H]1OC(=O)[C@H](C)[C@@H](O[C@H]2C[C@@](C)(OC)[C@](O)(CCl)[C@H](C)O2)[C@H](C)[C@@H](O[C@@H]2O[C@H](C)C[C@H](N(C)S(=O)(=O)c3ccc(Cl)cc3)[C@H]2O)[C@](C)(O)C[C@@H](C)CN[C@H](C)[C@@H](O)[C@]1(C)O` [Example A4-1, 4-chloro-N-((2S,3R,4S,6R)-2-(((2R,3S,4R,5R,8R,10R,11R,12S,13S,14R)-13-(((2R,4R,5S,6S)-5-(chloromethyl)-5-hydroxy-4-methoxy-4,6-dimethyltetrahydro-2H-pyran-2-yl)oxy)-2-ethyl-3,4,10-trihydroxy-3,5,8,10,12,14-hexamethyl-15-oxo-1-oxa-6-azacyclopentadecan-11-yl)oxy)-3-hydroxy-6-methyltetrahydro-2H-pyran-4-yl)-N-methylbenzenesulfonamide], the MIC in test [1] (BRD pathogens M. haemolytica and P. multocida, read-out: antibacterial / non-antibacterial (MIC class)) was greater than 64 µg/mL. For the same molecule, the negative logarithm of the IC50 (pIC50) (usually the IC50 on a negative log10 scale, so that one unit is a factor of ten) with TNF-α (Bos taurus) was 4.36; in the test with IL-6 (Bos taurus), 4.59. The minimal effective concentration (usually the lowest level tested that produced the effect sought) with IL-1β is 12 µM.

`CCCNC[C@]1(O)[C@H](C)O[C@@H](O[C@H]2[C@H](C)[C@@H](O[C@@H]3O[C@H](C)C[C@H](N(C)S(=O)(=O)c4ccc([N+](=O)[O-])cc4)[C@H]3O)[C@](C)(O)C[C@@H](C)CN[C@H](C)[C@@H](O)[C@](C)(O)[C@@H](CC)OC(=O)[C@@H]2C)C[C@@]1(C)OC` [Example B-2, N-((2S,3R,4S,6R)-2-(((2R,3S,4R,5R,8R,10R,11R,12S,13S,14R)-2-ethyl-3,4,10-trihydroxy-13-(((2R,4R,5S,6S)-5-hydroxy-4-methoxy-4,6-dimethyl-5-((propylamino)methyl)tetrahydro-2H-pyran-2-yl)oxy)-3,5,8,10, 12,14-hexamethyl-15-oxo-1-oxa-6-azacyclopentadecan-11-yl)oxy)-3-hydroxy-6-methyltetrahydro-2H-pyran-4-yl)-N-methyl-4-nitrobenzenesulfonamide]: in test [1] (setting [2]), the MIC is no more than 64 µg/mL. Also, the pIC50 in the test with TNF-α (Bos taurus) was 4.43; in the test on IL-6 (Bos taurus) it was 4.34.

Consider `CCCNC[C@]1(O)[C@H](C)O[C@@H](O[C@H]2[C@H](C)[C@@H](O[C@@H]3O[C@H](C)C[C@H](N(C)S(=O)(=O)c4cccnc4)[C@H]3O)[C@](C)(O)C[C@@H](C)CN[C@H](C)[C@@H](O)[C@](C)(O)[C@@H](CC)OC(=O)[C@@H]2C)C[C@@]1(C)OC` [Example B-12, N-((2S,3R,4S,6R)-2-(((2R,3S,4R,5R,8R,10R,11R,12S, 13S,14R)-2-ethyl-3,4,10-trihydroxy-13-(((2R,4R,5S,6S)-5-hydroxy-4-methoxy-4,6-dimethyl-5-((propylamino)methyl)tetrahydro-2H-pyran-2-yl)oxy)-3,5,8,10,12,14-hexamethyl-15-oxo-1-oxa-6-azacyclopentadecan-11-yl)oxy)-3-hydroxy-6-methyltetrahydro-2H-pyran-4-yl)-N-methylpyridine-3-sulfonamide], for which, in test [1] (setting [2]), the MIC was no more than 64 µg/mL. In the test with IL-1β, the minimal effective concentration was greater than 250 µM.

Consider `CC[C@H]1OC(=O)[C@H](C)[C@@H](O[C@H]2C[C@@](C)(OC)[C@](O)(CNC3CC3)[C@H](C)O2)[C@H](C)[C@@H](O[C@@H]2O[C@H](C)C[C@H](N(C)S(=O)(=O)c3ccc(Cl)cc3)[C@H]2O)[C@](C)(O)C[C@@H](C)CN[C@H](C)[C@@H](O)[C@]1(C)O` [Example B-23, 4-chloro-N-((2S,3R,4S,6R)-2-(((2R,3S,4R,5R,8R,10R,11R,12S,13S, 14R)-13-(((2R,4R,5S,6S)-5-((cyclopropylamino)methyl)-5-hydroxy-4-methoxy-4,6-dimethyltetrahydro-2H-pyran-2-yl)oxy)-2-ethyl-3,4, 10-trihydroxy-3,5,8, 10, 12,14-hexamethyl-15-oxo-1-oxa-6-azacyclopentadecan-11-yl)oxy)-3-hydroxy-6-methyltetrahydro-2H-pyran-4-yl)-N-methylbenzenesulfonamide], for which the MIC in test [1] (setting [2]) was no more than 64 µg/mL. Moreover, the pIC50 was 5.52 in the test with TNF-α (Bos taurus) and 4.89 with IL-6 (Bos taurus).

As to `CC[C@H]1OC(=O)[C@H](C)[C@@H](O[C@H]2C[C@@](C)(OC)[C@](O)(CNCCc3ccc(C(F)(F)F)cc3)[C@H](C)O2)[C@H](C)[C@@H](O[C@@H]2O[C@H](C)C[C@H](N(C)S(=O)(=O)c3ccc(Cl)cc3)[C@H]2O)[C@](C)(O)C[C@@H](C)CN[C@H](C)[C@@H](O)[C@]1(C)O` [Example B-31, 4-chloro-N-((2S,3R,4S,6R)-2-(((2R,3S,4R,5R,8R,10R,11R, 12S, 13S, 14R)-2-ethyl-3,4,10-trihydroxy-13-(((2R,4R,5S,6S)-5-hydroxy-4-methoxy-4,6-dimethyl-5-(((4-(trifluoromethyl)phenethyl)amino)methyl)tetrahydro-2H-pyran-2-yl)oxy)-3,5,8,10, 12,14-hexamethyl-15-oxo-1-oxa-6-azacyclopentadecan-11-yl)oxy)-3-hydroxy-6-methyltetrahydro-2H-pyran-4-yl)-N-methylbenzenesulfonamide], the MIC in test [1] (setting [2]) was no more than 64 µg/mL. Moreover, the pIC50 with TNF-α (Bos taurus) is 5.40; with IL-6 (Bos taurus) it was 5.15.

On to `CC[C@H]1OC(=O)[C@H](C)[C@@H](O[C@H]2C[C@@](C)(OC)[C@](O)(CNCCc3ccc(C(F)(F)F)cc3)[C@H](C)O2)[C@H](C)[C@@H](O[C@@H]2O[C@H](C)C[C@H](N(C)S(=O)(=O)Nc3ccc(C(F)(F)F)cc3)[C@H]2O)[C@](C)(O)C[C@@H](C)CN[C@H](C)[C@@H](O)[C@]1(C)O` [Example B-79], for which, in test [1] (setting [3]), the “MIC flag (*) for BRD pathogenic strains” value is listed as “B79* (MIC ≤64 μg/mL for at least one BRD pathogenic strain)”. In addition, the pIC50 with TNF-α and in the test with IL-6 was 5.15 throughout.

For the molecule “(2R,3S,4R,5R,8R,10R,11R,12S, 13S, 14R)-2-ethyl-3,4, 10-trihydroxy-13-[(2R,4R,5S,6S)-5-hydroxy-4-methoxy-4,6-dimethyl-5-(piperidin-1-ylmethyl) oxan-2-yl]oxy-11-[(2R,3S,4R,6S)-3-hydroxy-4-[(4-methoxyphenyl) sulfamoyl-methylamino]-6-methyloxan-2-yl]oxy-3,5,8,10, 12,14-hexamethyl-15-oxo-1-oxa-6-azacyclopentadecane [Example C-27]”, in test [1] (setting [4]), the “MIC flag (*) for BRD pathogenic strains” value was “C-27* (MIC ≤64 μg/mL for at least one BRD pathogenic strain)”. Besides, the pIC50 with TNF-α and in the test on IL-6 was 4.14 in each case.

With “(2R,3S,4R,5R,8R,10R,11R, 12S, 13S, 14R)-2-ethyl-3,4, 10-trihydroxy-13-[(2R,4R,5S,6S)-5-hydroxy-4-methoxy-4,6-dimethyl-5-(piperidin-1-ylmethyl) oxan-2-yl]oxy-11-[(2R,3S,4R,6S)-3-hydroxy-6-methyl-4-[methyl-[(3-methylphenyl) sulfamoyl]-amino]oxan-2-yl]oxy-3,5,8, 10, 12,14-hexamethyl-15-oxo-1-oxa-6-azacyclopentadecane [Example C-26]”, in test [1] (setting [4]), the “MIC flag (*) for BRD pathogenic strains” value is recorded as “C-26* (MIC ≤64 μg/mL for at least one BRD pathogenic strain)”. In addition, the values for the negative logarithm of the IC50 (pIC50) with TNF-α and in the test with IL-6 were 4.80 and 4.60, respectively.

In the case of “N-((2S,3R,4S,6R)-2-(((2R,3S,4R,5R,8R,10R,11R,12S,13S,14R)-2-ethyl-3,4,10-trihydroxy-13-(((2R,4R,5S,6S)-5-hydroxy-4-methoxy-4,6-dimethyl-5-((propylamino)methyl)tetrahydro-2H-pyran-2-yl)oxy)-3,5,6,8,10,12,14-heptamethyl-15-oxo-1-oxa-6-azacyclopentadecan-11-yl)oxy)-3-(4-fluorophenoxy)-6-methyltetrahydro-2H-pyran-4-yl)-N, 1-dimethyl-1H-imidazole-2-sulfonamide [Example B-162]”, the “MIC flag (*) for BRD pathogenic strains” value in test [1] (setting [3]) is recorded as “B-162* (MIC ≤64 μg/mL for at least one BRD pathogenic strain)”. Further, the negative logarithm of the IC50 (pIC50) was 5.10 with TNF-α and 5.05 in the test on IL-6.
